From PubChem BioAssay AID1963838 (Molecular Pharmacology Branch, DTP, NCI, 2024)

Tested on: 855422-203-R-J1-PDC complex spheroid viability
Test: Anticancer human tumor 855422-203-R-J1-PDC patient-derived bladder carcinoma cell line growth inhibition [POLQ]
Conditions: for IC50: curve of first compound; for viability, T/C: stronger effect = lower value; active = viability on the fitted dose curve at most 10% of control; inactive = the rest
Protocol: Multicellular complex tumor spheroid response to Polymerase (POL) inhibitors (novobiocin, ART-558, RP6685) in combination with a variety of drugs and investigational agents in selected tumor cell lines
The POL inhibitors (novobiocin, ART-558, and RP6685) were evaluated both individually and in combination with standard of care and investigational anticancer small molecules within a complex spheroid model of solid tumors. . Complex spheroids include a stromal component modeled by human endothelial cells (HUVEC) and fibroblasts modeled by human mesenchymal stem cells (MSCs). The concentration ranges selected for each drug and investigational agent were based upon clinically achievable concentrations if the clinical Cmax of the agent was known.
Compounds. The drugs and investigational agents: novobiocin (NSC847541), ART-558 (NSC835418), RP-6685 (NSC848927), peposertib (NSC802822), ceralasertib (NSC780249), elimusertib (NSC800525), camonsertib (NSC841442), AZD-1390 (NSC803789), olaparib (NSC753686), talazoparib (NSC767125), rucaparib (NSC756644), sotorasib (NSC818433), MRTX-1133 (NSC836407), SN-38 (NSC673596), topotecan (NSC609699), epotoside (NSC141540), doxorubicin (NSC123127), gemcitabine (NSC613327), 5-fluorouracil (NSC19893), paclitaxel (NSC125973), vemurafenib (NSC761431), MSA-2 (NSC828583), SN-011 (NSC837082), adavosertib (NSC754352), prexasertib (NSC758257), carboplatin (NSC241240) and oxaliplatin (NSC266046), were obtained from the National Cancer Institute (NCI) Developmental Therapeutics Program Chemical Repository (21). The FDA-approved anticancer drug set is available from the Developmental Therapeutics Program at https://dtp.cancer.gov/organization/dscb/obtaining/. […] The stock solutions were prepared in dimethyl sulfoxide (DMSO, Sigma-Aldrich, St. Louis, MO, cat. D2650), except for the platinum compounds which were prepared in saline (Quality Biological, Gaithersburg, MD, cat. 114-055-101), at 800-fold the tested concentration and stored at -70 degrees C prior to their use. All drugs and investigational agents were tested over a range starting from a high concentration at or near the clinical Cmax and decreasing in half-log increments. If the clinical Cmax for an agent had not been determined, the highest concentration tested was 10 microM, except for SN-38, which was tested at a high concentration of 1 microM.
Cell Culture. All cells were maintained in an incubator at 37 degrees C and 5% CO2 with 95% humidity. The PDC lines were cultured according to standard operating procedures established by the NCI PDMR (https://pdmr.cancer.gov). Table 3 of the manuscript, lists the cell lines along with the number of the three cell types plated to form the mct-spheroids and media for tumor cell growth. After thawing, all PDC lines, except 997537-175-T-J1-PDC and 415267-285-R-J2-PDC, were cultured in Matrigel-coated flasks prepared with a working solution of 1X Ham's F-12 nutrient mix, without supplementation (Thermo Fisher Scientific, cat. 11765054), 100 U/mL penicillin-streptomycin (Thermo Fisher Scientific, cat. 15140122), and 2.5% Matrigel (Corning Inc., Corning, NY, cat. 354248) for the first three passages. The two PDC lines 997537-175-T-J1-PDC and 415267-285-R-J2-PDC were cultured on uncoated flasks. The 857933-349-R-J2-PDC line was cultured in 6C/Colon 1B media containing advanced DMEM/F-12 (Thermo Fisher Scientific, cat. 12634028), 10 mM HEPES (Thermo Fisher Scientific, cat. 15630080), 1X GlutaMAX supplement (Thermo Fisher Scientific, cat. 35050061), 0.1 mg/mL primocin (InvivoGen, San Diego, CA, cat. ant-pm-2), 10% defined fetal bovine serum, heat inactivated (HyClone Laboratories Inc., Logan, UT, cat. SH30070.03HI), 50% L-WRN conditioned media (ATCC, cat. CRL-3276), 1.25 mM N-Acetyl-L-cysteine (Sigma-Aldrich, cat. A9165), 10 mM nicotinamide (Sigma-Aldrich, cat. N0636), 1X B-27 supplement (Thermo Fisher Scientific, cat. 17504044), 1X N-2 supplement (Thermo Fisher Scientific, cat. […]
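Also: spheroids exposed to compounds for seven days before readout.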

CC(=O)O[C@H]1C(=O)[C@@]2(C)[C@H]([C@H](OC(=O)c3ccccc3)[C@]3(O)C[C@H](OC(=O)[C@H](O)[C@@H](NC(=O)c4ccccc4)c4ccccc4)C(C)=C1C3(C)C)[C@]1(OC(C)=O)CO[C@@H]1C[C@@H]2O + COC1C(OC(N)=O)C(O)C(Oc2ccc3c(O)c(NC(=O)c4ccc(O)c(CC=C(C)C)c4)c(=O)oc3c2C)OC1(C)C
< 9.49 nM: IC50 (second compound 0.0316 µM) | IC50 (second compound 0.1 µM) | IC50 (second compound 0.316 µM) | IC50 (second compound 1 µM) | IC50 (second compound 3.16 µM) | IC50 (second compound 10 µM)
active: viability, T/C (second compound 0.0316 µM, first compound 0.00949 µM) 5.68% | viability, T/C (second compound 0.0316 µM, first compound 0.03 µM) 5.82% | viability, T/C (second compound 0.0316 µM, first compound 0.0949 µM) 5% | viability, T/C (second compound 0.0316 µM, first compound 0.3 µM) 6.46% | viability, T/C (second compound 0.0316 µM, first compound 0.949 µM) 5.84% | viability, T/C (second compound 0.0316 µM, first compound 3 µM) 5.17% | viability, T/C (second compound 0.1 µM, first compound 0.00949 µM) 5.77% | viability, T/C (second compound 0.1 µM, first compound 0.03 µM) 6.65% | viability, T/C (second compound 0.1 µM, first compound 0.0949 µM) 5.15% | viability, T/C (second compound 0.1 µM, first compound 0.3 µM) 4.93% | viability, T/C (second compound 0.1 µM, first compound 0.949 µM) 5.98% | viability, T/C (second compound 0.1 µM, first compound 3 µM) 4.74% | viability, T/C (second compound 0.316 µM, first compound 0.00949 µM) 8.12% | viability, T/C (second compound 0.316 µM, first compound 0.03 µM) 6.43% | viability, T/C (second compound 0.316 µM, first compound 0.0949 µM) 5.94% | viability, T/C (second compound 0.316 µM, first compound 0.3 µM) 4.73% | viability, T/C (second compound 0.316 µM, first compound 0.949 µM) 4.96% | viability, T/C (second compound 0.316 µM, first compound 3 µM) 5.68% | viability, T/C (second compound 1 µM, first compound 0.00949 µM) 7.33% | viability, T/C (second compound 1 µM, first compound 0.03 µM) 6.18% | viability, T/C (second compound 1 µM, first compound 0.0949 µM) 5.96% | viability, T/C (second compound 1 µM, first compound 0.3 µM) 5.56% | viability, T/C (second compound 1 µM, first compound 0.949 µM) 6.11% | viability, T/C (second compound 1 µM, first compound 3 µM) 6.43% | viability, T/C (second compound 3.16 µM, first compound 0.00949 µM) 6.84% | viability, T/C (second compound 3.16 µM, first compound 0.03 µM) 6.73% | viability, T/C (second compound 3.16 µM, first compound 0.0949 µM) 5.34% | viability, T/C (second compound 3.16 µM, first compound 0.3 µM) 5.02% | viability, T/C (second compound 3.16 µM, first compound 0.949 µM) 5.62% | viability, T/C (second compound 3.16 µM, first compound 3 µM) 6.32% | viability, T/C (second compound 10 µM, first compound 0.00949 µM) 7.25% | viability, T/C (second compound 10 µM, first compound 0.03 µM) 6.33% | viability, T/C (second compound 10 µM, first compound 0.0949 µM) 5.51% | viability, T/C (second compound 10 µM, first compound 0.3 µM) 5.78% | viability, T/C (second compound 10 µM, first compound 0.949 µM) 5.59% | viability, T/C (second compound 10 µM, first compound 3 µM) 6.4%
